Laboratory results: patent publication US20240383904A1, “HETEROCYCLIC COMPOUNDS” (Hoffmann-La Roche Inc., priority 2021, published 2024)
pIC50: −log10 of the molar value.

Molecular target: T1, MAGL (Homo sapiens, UniProt Q99685)
T1 sequence (Q99685 1-303): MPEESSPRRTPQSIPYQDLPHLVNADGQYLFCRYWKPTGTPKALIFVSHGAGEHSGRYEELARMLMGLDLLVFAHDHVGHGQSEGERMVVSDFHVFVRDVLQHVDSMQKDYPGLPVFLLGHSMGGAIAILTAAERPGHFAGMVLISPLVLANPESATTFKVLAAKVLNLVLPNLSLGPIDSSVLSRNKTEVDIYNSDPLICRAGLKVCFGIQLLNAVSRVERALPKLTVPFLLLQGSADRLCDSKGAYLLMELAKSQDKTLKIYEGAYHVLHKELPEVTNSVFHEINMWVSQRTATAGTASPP
Test: 2-AG assay: MAGL inhibitory activity by hydrolysis of 2-arachidonoylglycerol to arachidonic acid, followed by mass spectrometry
Type: biochemical
Conditions: for pIC50: 15 min preincubation, 30 min reaction at RT, 8 μM 2-arachidonoylglycerol

Row | Molecule | pIC50 | IC50 (unit nM) [nM]
1 | O=C1NC2(CO1)CN(C(=O)N1CC3(CC(Cc4ccc(C(F)(F)F)cn4)C3)C1)C2 [Example 354, 2-[6-[[5-(trifluoromethyl)-2-pyridyl]methyl]-2-azaspiro[3.3]heptane-2-carbonyl]-7-oxa-2,5-diazaspiro[3.4]octan-6-one] | 9.55 | –
2 | O=C1CCC2(CN(C(=O)N3CC4(CC(Cc5cncc(S(=O)(=O)C(F)(F)F)c5)C4)C3)C2)N1 [Example 252, 2-[6-[[5-(trifluoromethylsulfonyl)-3-pyridyl]methyl]-2-azaspiro[3.3]heptane-2-carbonyl]-2,5-diazaspiro[3.4]octan-6-one] | 8.01 | –
3 | O=C1CCC2(CN(C(=O)N3CC4(CC(Cn5cc(C(F)(F)F)cn5)C4)C3)C2)N1 [Example 54, 2-[6-[[4-(trifluoromethyl)pyrazol-1-y1]methyl]-2-azaspiro[3.3]heptane-2-carbonyl]-2,5-diazaspiro[3.4]octan-6-one] | 8.03 | –
4 | O=C1NC2(CO1)CN(C(=O)N1CC3(C1)CN(S(=O)(=O)c1ccc(OC(F)(F)F)cc1)C3)C2 [Example 191, 2-[2-[4-(trifluoromethoxy)phenyl]sulfonyl-2,6-diazaspiro[3.3]heptane-6-carbonyl]-7-oxa-2,5-diazaspiro[3.4]octan-6-one] | 7.52 | –
5 | Cc1nn(C)c(Cl)c1CN1CC2(C1)CN(C(=O)N1CC3(COC(=O)N3)C1)C2 [Example 305, 2-[6-[(5-chloro-1,3-dimethyl-pyrazol-4-yl)methyl]-2,6-diazaspiro[3.3]heptane-2-carbonyl]-7-oxa-2,5-diazaspiro[3.4]octan-6-one] | 7.68 | –
6 | O=C1COCC2(CN(C(=O)N3CC4(CC(Cc5ccc(C(F)(F)F)nc5)C4)C3)C2)N1 [Example 174, 2-[6-[[6-(trifluoromethyl)-3-pyridyl]methyl]-2-azaspiro[3.3]heptane-2-carbonyl]-8-oxa-2,5-diazaspiro[3.5]nonan-6-one] | 7.78 | –
7 | O=C1NC2(CO1)CN(C(=O)N1CC3(CC(Cc4cnc(C(F)(F)F)nc4)C3)C1)C2 [Example 32, 2-[6-[[2-(trifluoromethyl)pyrimi-din-5-y1]methyl]-2-azaspiro[3.3]heptane-2-carbonyl]-7-oxa-2,5-diazaspiro[3.4]octan-6-one] | 9.17 | –
8 | N#Cc1cc(C(F)(F)F)ncc1O[C@H]1CCC2(C1)CN(C(=O)N1CC3(COCC(=O)N3)C1)C2 [Example 214, 5-[[(6S)-2-(6-oxo-8-oxa-2,5-diazaspiro[3.5]nonane-2-carbonyl)-2-azaspiro[3.4]octan-6-yl]oxy]-2-(trifluoromethyl)pyridine-4-carbonitrile] | 6.41 | –
9 | O=C1NC2(CO1)CN(C(=O)N1CC3(CN(Cc4cnc(C(F)(F)F)nc4)C3)C1)C2 [Example 161, 2-[6-[[2-(trifluoromethyl)pyrimi-din-5-yl]methyl]-2,6-diazaspiro[3.3]heptane-2-carbonyl]-7-oxa-2,5-diazaspiro[3.4]octan-6-one] | 7.29 | –
10 | O=C1COCC2(CN(C(=O)N3CC4(CC(Cc5ccc(S(=O)(=O)C(F)(F)F)cn5)C4)C3)C2)N1 [Example 264, 2-[6-[[5-(trifluoromethylsulfonyl)-2-pyridyl]methyl]-2-azaspiro[3.3]heptane-2-carbonyl]-8-oxa-2,5-diazaspiro[3.5]nonan-6-one] | 8.26 | –
11 | Cn1nc(CC2CC3(C2)CN(C(=O)N2CC4(CCCC(=O)N4)C2)C3)cc1C(F)(F)F [Example 275, 2-[6-[[1-methyl-5-(trifluoromethyl)pyrazol-3-yl]methyl]-2-azaspiro[3.3]heptane-2-carbonyl]-2,5-diazaspiro[3.5]nonan-6-one] | 6.98 | –
12 | O=C1COCC2(CN(C(=O)N3CC4(CCC(OCC5(C(F)(F)F)CC5)CC4)C3)C2)N1 [Example 88, 2-[7-[[1-(trifluoromethyl)cyclopro-pyl]methoxy]-2-azaspiro[3.5]nonane-2-carbonyl]-8-oxa-2,5-diazaspiro[3.5]nonan-6-one] | 7.87 | –
13 | N=[S@](=O)(c1cccc(CC2CC3(C2)CN(C(=O)N2CC4(COC(=O)N4)C2)C3)c1)C(F)(F)F [Example 356, 2-[6-[3-(trifluoromethylsulfoni-midoyl)benzyl]-2-azaspiro[3.3]heptane-2-carbonyl]-7-oxa-2,5-diazaspiro[3.4]octan-6-one] | 9.70 | –
14 | 2-[6-[[6- (trifluoromethyl)pyrida- zin-3-y1]methyl]-2- azaspiro[3.3]heptane-2- carbonyl]-2,5- diazaspiro[3.4]octan-6- one [Example 12] | 7.44 | –
15 | O=C1COCC2(CN(C(=O)N3CC4(CC(OCC5(C(F)(F)F)CC5)C4)C3)C2)N1 [Example 140, 2-[6-[[1-(trifluoromethyl)cyclopro-pyl]methoxy]-2-azaspiro[3.3]heptane-2-carbonyl]-8-oxa-2,5-diazaspiro[3.5]nonan-6-one] | 7.10 | –
16 | O=C1CCC2(CN(C(=O)N3CC4(CC(Cc5cc(C(F)F)[nH]n5)C4)C3)C2)N1 [Example 257, 2-[6-[[5-(difluoromethyl)-1H-pyrazol-3-yl]methyl]-2-azaspiro[3.4]heptane-2-carbonyl]-2,5-diazaspiro[3.4]octan-6-one] | 7.78 | –

Row | Molecule | pIC50 | IC50 (unit nM) [nM]
17 | O=C1COCC2(CN(C(=O)N3CC4(CC(Cn5ncc(C(F)(F)F)n5)C4)C3)C2)N1 [Example 362, 2-[6-[[4-(trifluoromethyl)triazol-2-yl]methyl]-2-azaspiro[3.3]heptane-2-carbonyl]-8-oxa-2,5-diazaspiro[3.5]nonan-6-one] | 7.11 | –
18 | O=C1NC2(CO1)CN(C(=O)N1CC3(CC(c4ccc(S(=O)(=O)C(F)(F)F)cc4)C3)C1)C2 [Example 48, 2-[6-(4-triflylphenyl)-2-azaspiro[3.3]heptane-2-carbonyl]-7-oxa-2,5-diazaspiro[3.4]octan-6-one] | 9.82 | –
19 | O=C1COCC2(CN(C(=O)N3CC4(CC(Cc5cc(F)cc(C(F)(F)F)c5)C4)C3)C2)N1 [Example 142] | 9.35 | –
20 | N#Cc1cc(CC2CC3(C2)CN(C(=O)N2CC4(COC(=O)N4)C2)C3)cnc1C(F)(F)F [Example 243, 5-[[2-(6-oxo-7-oxa-2,5-diazaspiro[3.4]octane-2-carbonyl)-2-azaspiro[3.3]heptan-6-yl]methyl]-2-(trifluoromethyl)pyridine-3-carbonitrile] | 9.22 | –
21 | N=S(=O)(c1cc(F)cc(CC2CC3(C2)CN(C(=O)N2CC4(COCC(=O)N4)C2)C3)c1)C(F)(F)F (stereo not shown) [Example 322, 2-[6-[[3-fluoro-5-(trifluoromethylsulfoni-midoyl)phenyl]methyl]-2-azaspiro[3.3]heptane-2-carbonyl]-8-oxa-2,5-diazaspiro[3.5]nonan-6-one] | 8.36 | –
22 | O=C1NC2(CO1)CN(C(=O)N1CC3(CC(Oc4cnc(C(F)(F)F)cn4)C3)C1)C2 [Example 70, 2-[6-[5-(trifluoromethyl)pyrazin-2-yl]oxy-2-azaspiro[3.3]heptane-2-carbonyl]-7-oxa-2,5-diazaspiro[3.4]octan-6-one] | 8.43 | –
23 | O=C1COCC2(CN(C(=O)N3CC4(CC(Cc5cc(C(F)(F)F)ccn5)C4)C3)C2)N1 [Example 178, 2-[6-[[4-(trifluoromethyl)-2-pyridyl]methyl]-2-azaspiro[3.3]heptane-2-carbonyl]-8-oxa-2,5-diazaspiro[3.5]nonan-6-one] | 7.81 | –
24 | O=C1CCC2(CN(C(=O)N3CC4(CN(Cc5cn[nH]c5C(F)(F)F)C4)C3)C2)N1 [Example 316, 2-[6-[[5-(trifluoromethyl)-1H-pyrazol-4-yl]methyl]-2,6-diazaspiro[3.3]heptane-2-carbonyl]-2,5-diazaspiro[3.4]octan-6-one] | 6.26 | –
25 | O=C1NC2(CO1)CN(C(=O)N1CC3(CC(Nc4ccc(C(F)(F)F)nn4)C3)C1)C2 [Example 51, 2-[6-[[6-(trifluoromethyl)pyrida-zin-3-yl]amino]-2-azaspiro[3.3]heptane-2-carbonyl]-7-oxa-2,5-diazaspiro[3.4]octan-6-one] | 7.62 | –
26 | O=C1CCC2(CN(C(=O)N3CC4(CC(Cc5cnc(C(F)(F)F)nc5)C4)C3)C2)N1 [Example 11, 2-[6-[[2-(trifluoromethyl)pyrimi-din-5-y1]methyl]-2-azaspiro[3.3]heptane-2-carbonyl]-2,5-diazaspiro[3.4]octan-6-one] | 7.51 | –
27 | O=C1NC2(CO1)CN(C(=O)N1CC3(CCN(S(=O)(=O)C45CC(C(F)(F)F)(C4)C5)CC3)C1)C2 [Example 204, 2-[7-[[3-(trifluoromethyl)-1-bicyclo[1.1.1]pentanyl]sulfonyl]-2,7-diazaspiro[3.5]nonane-2-carbonyl]-7-oxa-2,5-diazaspiro[3.4]octan-6-one] | 7.93 | –
28 | N=[S@@](=O)(c1cccc(CC2CC3(C2)CN(C(=O)N2CC4(COCC(=O)N4)C2)C3)c1)C(F)(F)F [Example 291, 2-[6-[[3-(trifluoromethylsulfoni-midoyl)phenyl]methyl]-2-azaspiro[3.3]heptane-2-carbonyl]-8-oxa-2,5-diazaspiro[3.5]nonan-6-one] | 8.90 | –
29 | Cn1ncc(C(F)(F)F)c1CN1CCC2(CC1)CN(C(=O)N1CC3(CCC(=O)N3)C1)C2 [Example 325, 2-[7-[[2-methyl-4-(trifluoromethyl)pyrazol-3-yl]methyl]-2,7-diazaspiro[3.5]nonane-2-carbonyl]-2,5-diazaspiro[3.4]octan-6-one] | 8.41 | –
30 | O=C1NC2(CO1)CN(C(=O)N1CC3(CC(Cc4ccc(F)cc4C(F)(F)F)C3)C1)C2 [Example 22, 2-[6-[4-fluoro-2-(trifluoromethyl)benzyl]-2-azaspiro[3.3]heptane-2-carbonyl]-7-oxa-2,5-diazaspiro[3.4]octan-6-one] | – | < 5
31 | N#Cc1cc(C(F)(F)F)ncc1O[C@H]1CCC2(C1)CN(C(=O)N1CC3(COC(=O)N3)C1)C2 [Example 209, 5-[[(6S)-2-(6-oxo-7-oxa-2,5-diazaspiro[3.4]octane-2-carbonyl)-2-azaspiro[3.4]octan-6-yl]oxy]-2-(trifluoromethyl)pyridine-4-carbonitrile] | 8.20 | –
